# Molecular target: human RAF1 (Homo sapiens (Human), UniProt P04049)
# Test: Protein kinase assay (radiometric 33P-ATP, MEK1 (K97R) substrate)
# Type: biochemical
# Conditions: substrate human MEK1 (K97R) 3 micromolar, ATP 10 micromolar, 3-fold dilution from 10 micromolar, read-out: RAF-1 IC50
# Experimental: Protein kinase assay: Assay platform was used to measure kinase/inhibitor interactions as described previously (Anastassiadis et al., 2011). In brief, for each reaction, kinase and substrate were mixed in a buffer containing 20 mM HEPES (pH 7.5), 10 mM MgCl2, 1 mM EGTA, 0.02% Brij35, 0.02 mg/mL BSA, 0.1 mM Na3VO4, 2 mM DTT, and 1% DMSO. All compounds were solubilized in DMSO. Compounds were then added to each reaction mixture via acoustic dispense using an ECHO 550 nanoliter dispenser. For human RAF1 testing, human MEK1 (K97R) was used as a substrate at a concentration of 3 micromolar, with a final ATP concentration of 10 micromolar. For human BRAF testing, human MEK1 (K97R) was used as a substrate at 1 micromolar concentration, with a final ATP concentration of 25 micromolar. […] After a 20-min incubation, ATP (Sigma-Aldrich, St. Louis, Mo. 63178) and [g33P] ATP (specific activity 10 microCi/microliter) purchased at PerkinElmer (Boston, Mass., 02118 Cat #BLU 003H250UC) were added at a final total concentration of 10 mM. Reactions were carried out at room temperature for 2 hr and spotted onto P81 ion exchange cellulose chromatography paper (Reaction Biology). Filter paper was washed in 0.75% phosphoric acid to remove unincorporated ATP. The percent remaining kinase activity relative to a vehicle-containing (DMSO) kinase reaction was calculated for each kinase/inhibitor pair. IC50 values were calculated using Prism 5 (GraphPad).
# Chain of human RAF1 (P04049 whole entry): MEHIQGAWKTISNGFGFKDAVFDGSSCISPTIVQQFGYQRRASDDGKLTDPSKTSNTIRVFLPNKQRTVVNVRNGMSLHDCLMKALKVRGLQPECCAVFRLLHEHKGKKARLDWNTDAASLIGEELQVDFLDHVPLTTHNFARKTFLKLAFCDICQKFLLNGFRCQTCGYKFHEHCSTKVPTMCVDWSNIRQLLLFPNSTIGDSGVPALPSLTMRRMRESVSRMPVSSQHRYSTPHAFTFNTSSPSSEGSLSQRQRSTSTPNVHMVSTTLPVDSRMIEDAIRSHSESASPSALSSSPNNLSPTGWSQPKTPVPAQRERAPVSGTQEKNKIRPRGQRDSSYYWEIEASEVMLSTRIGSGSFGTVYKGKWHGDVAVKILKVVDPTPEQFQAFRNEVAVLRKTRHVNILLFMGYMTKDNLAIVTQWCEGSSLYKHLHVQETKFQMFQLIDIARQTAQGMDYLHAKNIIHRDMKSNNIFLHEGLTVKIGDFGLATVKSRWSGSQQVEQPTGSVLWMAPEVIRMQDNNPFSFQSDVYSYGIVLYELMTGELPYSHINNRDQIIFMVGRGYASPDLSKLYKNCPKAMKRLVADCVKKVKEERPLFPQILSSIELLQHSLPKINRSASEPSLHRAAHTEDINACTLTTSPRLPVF
row,IC50,Compound
1,≤ 10 nM,"CNc1ncc2cc(-c3cc(NC(=O)N4CCOC(C(F)(F)F)C4)ccc3C)cnc2n1 (stereo in doubt) [Example 58, (2S)-N-[4-methyl-3-2-(methylamino)pyrido[2,3-d]pyrimidin-6-yl]phenyl]-2-(trifluoromethyl)morpholine-4-carboxamide]"
2,≤ 10 nM,"CNc1ncc2cc(-c3cc(NC(=O)N4CC[C@H](OC(F)F)C4)c(F)cc3C)cnc2n1 [Example 28, (S)-3-(difluoromethoxy)-N-(2-fluoro-4-methyl-5-(2-(methylamino)pyrido[2,3-d]pyrimidin-6-yl)phenyl)pyrrolidine-1-carboxamide]"
3,≤ 10 nM,"C#Cc1nc2nc(NC)ncc2cc1-c1cc(NC(=O)c2ccnc(C(F)(F)F)c2)ccc1C [Example 67, N-[3-[7-ethynyl-2-(methylamino)pyrido[2,3-d]pyrimidin-6-yl]-4-methylphenyl]-2-(trifluoromethyl)pyridine-4-carboxamide]"

# From patent US11667634B2, “Inhibitors of RAF kinases” (Kinnate Biopharma Inc., priority 2019, dated 2023)
